ChEMBL document CHEMBL1121730, “beta-Adrenergic blocking agents. alpha- and gamma-methyl(aryloxy)propanolamines” (J Med Chem, 1981)

molecular target: Adrenergic receptor beta (Rattus norvegicus, UniProt P18090+P10608+P26255); assay: Binding affinity against Beta adrenergic receptor in C6-2B astrocytoma cells, using [125I]-iodohydroxybenzylpindolol-benzylpindolol([125I]-HYP); assay type: cell-based

Compound	Kd [µM]
C=CCc1ccccc1OC(C)C(O)CNC(C)(C)C (stereo not given)	0.015
CCc1ccc(OC(C)C(O)CNC(C)(C)C)cc1 (stereo not given)	2
CCc1ccc(OC(C)C(O)CNC(C)C)cc1 (stereo not given)	2
CC(Oc1cccc2ccccc12)C(O)CNC(C)(C)C (stereo not given)	0.005
CC(Oc1ccccc1)C(O)CNC(C)(C)C (stereo not given)	0.3
CC(C)NCC(O)C(C)Oc1cccc2ccccc12 (stereo not given)	0.04
C=CCc1ccccc1OC(C)C(O)CNC(C)C (stereo not given)	0.05

More lines, now with the values ahead:

Kd [µM]	Compound
0.5	CC(C)NCC(O)C(C)Oc1ccc(Cl)c(Cl)c1 (stereo not given)
0.2	Cc1ccc(OC(C)C(O)CNC(C)C)cc1C (stereo not given)
0.2	Cc1ccc(OC(C)C(O)CNC(C)(C)C)cc1C (stereo not given)
